{"source": "paper PMC9705338", "about": "“The phycoerythrobilin isomerization activity of MpeV in Synechococcus sp. WH8020 is prevented by the presence of a histidine at position 141 within its phycoerythrin-I β-subunit substrate” (Frontiers in Microbiology, 2022)", "biological_target": "T1, WHMpeV (MpeV from WH8020) (Synechococcus sp. WH 8020, UniProt Q02178)", "T1 construct": "His-tagged, in pCDF-Duet, co-expressed in E. coli with RS9916 cpeS, cpeZ, ho1/pebS and a PE beta-subunit", "T1 sequence (Q02178 1-301)": "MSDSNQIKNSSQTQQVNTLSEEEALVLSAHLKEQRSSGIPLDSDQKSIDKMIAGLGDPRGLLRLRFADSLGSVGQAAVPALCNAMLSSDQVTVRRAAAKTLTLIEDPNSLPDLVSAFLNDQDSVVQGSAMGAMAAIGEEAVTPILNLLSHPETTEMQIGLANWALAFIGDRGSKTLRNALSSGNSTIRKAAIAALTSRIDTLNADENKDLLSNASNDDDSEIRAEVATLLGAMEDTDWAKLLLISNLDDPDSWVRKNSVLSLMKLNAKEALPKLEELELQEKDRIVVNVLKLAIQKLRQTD", "experiment": "co-expression in E. coli; absorbance, zinc fluorescence, LC-MS-MS of the product subunit", "type": "cell-based", "data": [{"smiles": "C=CC1=C(C)C(CC2=NC(=Cc3[nH]c(C=C4NC(=O)C(C)C4=CC)c(C)c3CCC(=O)O)C(CCC(=O)O)=C2C)NC1=O", "note": "(centres unmarked) [phycoerythrobilin]", "values": [{"measurement": "co-expression in E. coli; absorbance, zinc fluorescence, LC-MS-MS of the product", "setting": "bilin acceptor WHCpeB (ligation without isomerization), RSCpeB or WHMpeB (ligation with isomerization), with RSCpeZ and RSCpeS", "value": "WHMpeV acts as a PEB lyase-isomerase, doubly ligating PUB on RSCpeB"}]}, {"smiles": "C=CC1=C(C)[C@@H](CC2=N/C(=C\\c3[nH]c(C[C@H]4NC(=O)C(C)=C4C=C)c(C)c3CCC(=O)O)C(CCC(=O)O)=C2C)NC1=O", "note": "[phycourobilin]", "values": [{"measurement": "co-expression in E. coli; absorbance, zinc fluorescence, LC-MS-MS of the product", "setting": "covalent, protein-bound product on RSCpeB, WHMpeB and WHCpeB H141L", "value": "WHMpeV is capable of isomerizing activity on both WHMpeB and RSCpeB"}]}]}
